compound: C(C(=O)C(=O)O)Br [Bromopyruvate] + CS(=O)(=O)CCNCc1ccc(-c2ccc3ncnc(Nc4ccc(OCc5cccc(F)c5)c(Cl)c4)c3c2)o1 [Lapatinib] (partner 2 µM); experiment: relative viability (nuclei count vs DMSO), 5 days (fraction); higher = more cells survive; conditions: first compound 1 µM
How it was run: (§1)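 Relative viability is defined as nuclei in treated wells over nuclei in vehicle wells. Duplicate plates were run and medians reported. Lung cancer cell lines in 1536-well plates were dosed by pin tool one day after seeding, with one drug or with a fixed anchor-drug dose plus five library-drug doses (not always all listed) in √10 steps, and nuclei were counted after 5 days.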

Cell Line	relative viability
SK-LU-1	1.06
ABC-1	1.34
NCI-H358	0.435
NCI-H661	0.52
RERF-LC-KJ	0.874

same assay, conditions: first compound 3.162 µM

Cell Line	relative viability
SK-LU-1	0.806
ABC-1	1.24
NCI-H358	0.449
NCI-H661	0.475
RERF-LC-KJ	0.892

same assay, conditions: first compound 10 µM

Cell Line	relative viability
SK-LU-1	0.81
ABC-1	1.36
NCI-H358	0.482
NCI-H661	0.623
RERF-LC-KJ	0.984

same assay, conditions: first compound 31.62 µM

Cell Line	relative viability
SK-LU-1	0.823
ABC-1	1.13
NCI-H358	0.483
NCI-H661	0.526
RERF-LC-KJ	0.868

same assay, conditions: first compound 100 µM

Cell Line	relative viability
SK-LU-1	0.88
ABC-1	1.18
NCI-H358	0.451
NCI-H661	0.559
RERF-LC-KJ	0.829

compound: C(C(=O)C(=O)O)Br [Bromopyruvate] + C[C@@H](Oc1cc(-c2cnn(C3CCNCC3)c2)cnc1N)c1c(Cl)ccc(F)c1Cl [Crizotinib] (partner 1 µM); experiment: as above; conditions: first compound 1 µM
How it was run: as §1

Cell Line	relative viability
SK-LU-1	1.05
ABC-1	1.47
NCI-H358	0.681
NCI-H661	1.05
RERF-LC-KJ	0.771

same assay, conditions: first compound 3.162 µM

Cell Line	relative viability
SK-LU-1	0.99
ABC-1	1.13
NCI-H358	0.702
NCI-H661	0.897
RERF-LC-KJ	0.82

same assay, conditions: first compound 10 µM

Cell Line	relative viability
SK-LU-1	0.831
NCI-H358	0.521
NCI-H661	0.854
RERF-LC-KJ	0.855

same assay, conditions: first compound 31.62 µM

Cell Line	relative viability
SK-LU-1	0.856
ABC-1	1.05
NCI-H358	0.604
NCI-H661	1.12
RERF-LC-KJ	0.813

same assay, conditions: first compound 100 µM

Cell Line	relative viability
SK-LU-1	0.794
ABC-1	0.636
NCI-H358	0.64
NCI-H661	1.11
RERF-LC-KJ	0.891

compound: C(C(=O)C(=O)O)Br [Bromopyruvate] + C[C@]1(O)C[C@@H](c2nc(-c3ccc4ccc(-c5ccccc5)nc4c3)c3c(N)nccn32)C1 [Linsitinib] (partner 1 µM); experiment: as above; conditions: first compound 1 µM
How it was run: as §1

Cell Line	relative viability
SK-LU-1	1.02
ABC-1	0.767
NCI-H358	0.748
NCI-H661	0.556
RERF-LC-KJ	0.885

same assay, conditions: first compound 3.162 µM

Cell Line	relative viability
SK-LU-1	1.09
ABC-1	1.05
NCI-H358	0.77
NCI-H661	0.631
RERF-LC-KJ	0.935

same assay, conditions: first compound 10 µM

Cell Line	relative viability
SK-LU-1	1.12
NCI-H358	0.81
NCI-H661	0.591
RERF-LC-KJ	0.952

same assay, conditions: first compound 31.62 µM

Cell Line	relative viability
SK-LU-1	0.964
ABC-1	0.693
NCI-H358	0.62
NCI-H661	0.727
RERF-LC-KJ	0.906

same assay, conditions: first compound 100 µM

Cell Line	relative viability
SK-LU-1	1.09
ABC-1	0.753
NCI-H358	0.903
NCI-H661	0.676
RERF-LC-KJ	0.933

compound: CC(O)(CS(=O)(=O)c1ccc(F)cc1)C(=O)Nc1ccc(C#N)c(C(F)(F)F)c1 [Bicalutamide] + COc1cccc2cc(-c3nc([C@H]4CC[C@H](C(=O)O)CC4)n4ncnc(N)c34)[nH]c12 [OSI-027] (partner 0.5 µM); experiment: as above; conditions: first compound 0.08 µM
How it was run: as §1

Cell Line	relative viability
SK-LU-1	0.371
ABC-1	0.46
NCI-H358	0.903
NCI-H661	0.719
RERF-LC-KJ	0.679

same assay, conditions: first compound 0.253 µM

Cell Line	relative viability
SK-LU-1	0.39
ABC-1	0.448
NCI-H358	0.651
NCI-H661	0.691
RERF-LC-KJ	0.56

same assay, conditions: first compound 0.8 µM

Cell Line	relative viability
SK-LU-1	0.358
ABC-1	0.45
NCI-H358	1.01
NCI-H661	0.839
RERF-LC-KJ	0.563

same assay, conditions: first compound 2.53 µM

Cell Line	relative viability
SK-LU-1	0.276
ABC-1	0.454
NCI-H358	0.67
NCI-H661	0.699
RERF-LC-KJ	0.543

— the supplement of paper PMC10307832
